System: axonal mitochondrial transport in DRG neurons
Assay: FRAP of Mito-GFP in distal axons of DRG neurons
Format: cell-based, rat
Protocol: MAG or Aggrecan exposures were performed as bath application or on coated substrates. For bath application, dissociated DRGs were cultured for 48 h and treated with 25 μg/ml of MAG-Fc (R&D Systems; 538-MG), 25 μg/ml Fc control (R&D Systems; 110-HG), or 10 μg/ml of Aggrecan (Sigma-Aldrich; A1960) for 4 h. Cultures were pretreated with either Ca^2+ chelator BAPTA-AM (3 μM; Sigma-Aldrich; A1076), ROCK inhibitor Y27632 (10 μM; Sigma-Aldrich; SCM075), HDAC6 inhibitor TubA (10 μM; R&D Systems; 6270), Thapsigargin (1 μM; Sigma-Aldrich; T9033), Rho Activator II (1 μg/ml; Cytoskeleton; CNO3), or equivalent volume DMSO 30 min before MAG-Fc, Aggrecan, or controls. For substrate-bound experiments, adult DRGs were cultured on glass bottom dishes (Greiner) that were coated with 25 μg/ml Aggrecan in addition to the laminin/poly-D-lysine substrate.
Mito-KR- and Mito-GFP-expressing DRG neurons were used for FRAP analyses at 48-72 h after transfection. To evaluate mitochondrial motility in Mito-KR-expressing neurons, Mito-KR signals were photobleached using continual exposure to an argon laser set at 594 nm for 30 s (100% laser power) The bleached ROI was then monitored for recovery using an argon laser set at 580 nm every 10 s over 16 min (13% laser power). For FRAP analyses with Mito-GFP, GFP signals were photobleached in a 50 μm ROI using an argon laser set at 488 nm every 10 s for 16 min (70% laser power). The same excitation was used for post-bleach imaging to assess recovery every 10 s for 16 min. For axon shaft FRAP experiments in Mito-GFP-expressing neurons, ROIs of ˜50 μm in length (without branches) were imaged >100 μm proximal to the growth cone. Prebleach, bleach, and post-bleach sequences were the same as for Mito-GFP above. In all cases, neurons were imaged over 40 s or more to acquire baseline Mito-KR or Mito-GFP signals before photobleaching using an argon laser (580 nm at 13% power for Mito-KR and 488 nm at 31% power for Mito-GFP).
Vesicle trafficking was quantified using differential ImageJ Difference Tracker Plug-in (Andrews et al., 2010). 50-80-μm long unbranched axon segments at approximately the mid-region between growth cone and cell body were analyzed. Kymographs were generated using ImageJ Kymograph Plug-in. For analyses of axon retraction in the CALI experiment, the distance from the distal tip of the growth cone in the pre-CALI image sequence was used as the baseline (t=1 min). The distance between the growth tip at end of the post-CALI sequence and the pre-CALI baseline was measured using LAS-X software. Movement of ≥0.5 μm toward the axon shaft was counted as retracted. Fluorescence emission of the Mito-KR post-CALI was analyzed using ImageJ. For normalizing intensities across FRAP image sets, fluorescence intensity at each time point was scaled using the LAS-X FRAP module so that the residual fluorescence signal at t=0 min (post-bleach) was set at 0 and the prebleach intensity was set at 100% for each bleached ROI. For axon shaft FRAP analyses, each 50-μm bleached ROI was divided into […], and the fluorescence intensity recovery was measured as described above. EMs at 1,900× and 4,800× magnification across the crosssectional surface of each sciatic nerve were used for in vivo analyses of mitochondrial content. A minimum of 75 unmyelinated axons was analyzed for each nerve. All unmyelinated axons from each analyzed image were included for quantitative studies. The total number of mitochondria was determined in each unmyelinated axon in the field and was divided by the total number of unmyelinated axons for all subjects. […] was determined by changes in JC-1 fluorescence. JC-1 exists either as a green fluorescent monomer at depolarized membrane potentials or as an orange-red fluorescent aggregate at hyperpolarized membrane potentials. […]

Q: With `CN1CCc2c(c3ccccc3n2Cc2ccc(C(=O)NO)cc2)C1` [TubA, tubastatin] as the molecule, how does the “Mito-GFP recovery for thapsigargin-treated cultures, Myc-Miro1K105Q-expressing neurons” value (1 μM thapsigargin + 10 μM TubA) read?
A: only a modest response to TubA treatment

Q: And the “Mito-GFP recovery for thapsigargin-treated cultures, Myc-Miro1K629Q-expressing neurons” value (1 μM thapsigargin + 10 μM TubA)?
A: significantly increased by TubA treatment

Q: What about the “Mito-GFP recovery in DRGs transfected with WT, K40Q or K40A α-tubulin” value (10 μM TubA vs DMSO, 960 s after bleach) of the same molecule?
A: significantly increases Mito-GFP recovery in all three conditions

Q: And the “mitochondrial transport with combined 10 μM TubA, 3 μM BAPTA-AM and ROCK inhibitor vs each alone” value (MAG-Fc, Mito-GFP FRAP)?
A: did not increase mitochondrial transport above the results seen

Q: What about the “effect on Rho activator-dependent decrease in mitochondrial transport” value (Rho-Activator + 10 μM TubA) of the same molecule?
A: prevented by treatment with TubA

Q: What about the “effect on aggrecan-dependent decrease in Mito-GFP recovery” value (aggrecan 10 μg/ml, TubA 10 μM or Y27632 10 μM) of the same molecule?
A: prevented by treatment with TubA

Q: And the “effect on MAG-Fc-dependent decrease in Mito-GFP recovery / mitochondrial transport” value (pretreatment: TubA 10 μM, Y27632 10 μM or BAPTA-AM 3 μM, 960 s after bleach)?
A: prevented by TubA pretreatment

Q: What about the “effect on thapsigargin-dependent decrease in mitochondrial transport” value (thapsigargin + 10 μM TubA) of the same molecule?
A: prevented by inhibition of HDAC6

Q: How did the “mitochondrial transport in DRG axons (Mito-GFP FRAP)” value (1 μM thapsigargin) turn out when `C/C=C(/C)C(=O)O[C@H]1C(C)=C2[C@H]([C@@H]1OC(=O)CCCCCCC)[C@@](C)(OC(C)=O)C[C@H](OC(=O)CCC)[C@@]1(O)[C@H]2OC(=O)[C@@]1(C)O` [thapsigargin] was run?
A: similarly decreased mitochondrial transport
